Source: US11718604B2, “4-amino-6-(1,3-benzodioxole)picolinates and their use as herbicides” (Dow AgroSciences LLC, priority 2018, dated 2023)

Tests used:
Type in all cases: in vivo
[1] = test system: ABUTH: velvetleaf (Abutilon theophrasti); assay: Post-emergent herbicidal test, velvetleaf; settings: post-emergence, 336 h, 14 days after application, read-out: Visual Growth Reduction (%) 14 Days After Application ABUTH; for pest or weed control at 17.5 g/ha: 17.5 g ai/ha; for pest or weed control at 35 g/ha: 35 g ai/ha; for pest or weed control at 70 g/ha: 70 g ai/ha; for pest or weed control at 140 g/ha: 140 g ai/ha
Outline: (§1)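 Plants are raised in potting mix of pH 6.0 to 6.8 in a greenhouse until the first or second true leaf, then sprayed with formulated compound at 187 L/ha at several rates (½× to 1/16× of the top rate). After 14 d, damage is rated visually as percent injury against untreated plants.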

[2] = test system: BRSNN: oilseed rape, canola (Brassica napus); assay: Post-emergent herbicidal test, oilseed rape; settings: post-emergence, 336 h, 14 days after application, read-out: Visual Growth Reduction (%) 14 Days After Application BRSNN; for pest or weed control at 17.5 g/ha: 17.5 g ai/ha; for pest or weed control at 35 g/ha: 35 g ai/ha; for pest or weed control at 70 g/ha: 70 g ai/ha; for pest or weed control at 140 g/ha: 140 g ai/ha
Outline: as §1

[3] = test system: CIRAR: Canada thistle (Cirsium arvense); assay: Post-emergent herbicidal test, Canada thistle; settings: post-emergence, 336 h, 14 days after application, read-out: Visual Growth Reduction (%) 14 Days After Application CIRAR; for pest or weed control at 17.5 g/ha: 17.5 g ai/ha; for pest or weed control at 35 g/ha: 35 g ai/ha; for pest or weed control at 70 g/ha: 70 g ai/ha; for pest or weed control at 140 g/ha: 140 g ai/ha
Outline: as §1

[4] = test system: EPHHL: wild poinsettia (Euphorbia heterophylla); assay: Post-emergent herbicidal test, wild poinsettia; settings: post-emergence, 336 h, 14 days after application, read-out: Visual Growth Reduction (%) 14 Days After Application EPHHL; for pest or weed control at 17.5 g/ha: 17.5 g ai/ha; for pest or weed control at 35 g/ha: 35 g ai/ha; for pest or weed control at 70 g/ha: 70 g ai/ha; for pest or weed control at 140 g/ha: 140 g ai/ha
Outline: as §1

[5] = test system: IPOHE: ivyleaf morningglory (Ipomoea hederacea); assay: Post-emergent herbicidal test, ivyleaf morningglory; settings: post-emergence, 336 h, 14 days after application, read-out: Visual Growth Reduction (%) 14 Days After Application IPOHE; for pest or weed control at 17.5 g/ha: 17.5 g ai/ha; for pest or weed control at 35 g/ha: 35 g ai/ha; for pest or weed control at 70 g/ha: 70 g ai/ha; for pest or weed control at 140 g/ha: 140 g ai/ha
Outline: as §1

[6] = test system: VIOTR: wild violet (Viola tricolor); assay: Post-emergent herbicidal test, wild violet; settings: post-emergence, 336 h, 14 days after application, read-out: Visual Growth Reduction (%) 14 Days After Application VIOTR; for pest or weed control at 17.5 g/ha: 17.5 g ai/ha; for pest or weed control at 35 g/ha: 35 g ai/ha; for pest or weed control at 70 g/ha: 70 g ai/ha; for pest or weed control at 140 g/ha: 140 g ai/ha
Outline: as §1

[7] = test system: CYPES: yellow nutsedge (Cyperus esculentus); assay: Post-emergent herbicidal test, yellow nutsedge; settings: post-emergence, 336 h, 14 days after application, read-out: Visual Growth Reduction (%) 14 Days After Application CYPES; for pest or weed control at 17.5 g/ha: 17.5 g ai/ha; for pest or weed control at 35 g/ha: 35 g ai/ha; for pest or weed control at 70 g/ha: 70 g ai/ha; for pest or weed control at 140 g/ha: 140 g ai/ha
Outline: as §1

[8] = test system: DIGSA: large crabgrass (Digitaria sanguinalis); assay: Post-emergent herbicidal test, large crabgrass; settings: post-emergence, 336 h, 14 days after application, read-out: Visual Growth Reduction (%) 14 Days After Application DIGSA; for pest or weed control at 17.5 g/ha: 17.5 g ai/ha; for pest or weed control at 35 g/ha: 35 g ai/ha; for pest or weed control at 70 g/ha: 70 g ai/ha; for pest or weed control at 140 g/ha: 140 g ai/ha
Outline: as §1

[9] = test system: ECHCG: barnyardgrass (Echinochloa crus-galli); assay: Post-emergent herbicidal test, barnyardgrass; settings: post-emergence, 336 h, 14 days after application, read-out: Visual Growth Reduction (%) 14 Days After Application ECHCG; for pest or weed control at 17.5 g/ha: 17.5 g ai/ha; for pest or weed control at 35 g/ha: 35 g ai/ha; for pest or weed control at 70 g/ha: 70 g ai/ha; for pest or weed control at 140 g/ha: 140 g ai/ha
Outline: as §1

[10] = test system: SETFA: giant foxtail (Setaria faberi); assay: Post-emergent herbicidal test, giant foxtail; settings: post-emergence, 336 h, 14 days after application, read-out: Visual Growth Reduction (%) 14 Days After Application SETFA; for pest or weed control at 17.5 g/ha: 17.5 g ai/ha; for pest or weed control at 35 g/ha: 35 g ai/ha; for pest or weed control at 70 g/ha: 70 g ai/ha; for pest or weed control at 140 g/ha: 140 g ai/ha
Outline: as §1

[11] = test system: SORVU: shattercane (Sorghum bicolor); assay: Post-emergent herbicidal test, shattercane; settings: post-emergence, 336 h, 14 days after application, read-out: Visual Growth Reduction (%) 14 Days After Application SORVU; for pest or weed control at 17.5 g/ha: 17.5 g ai/ha; for pest or weed control at 35 g/ha: 35 g ai/ha; for pest or weed control at 70 g/ha: 70 g ai/ha; for pest or weed control at 140 g/ha: 140 g ai/ha
Outline: as §1

SMILES: COC(=O)c1nc(-c2ccc(Br)c3c2OC(F)(F)O3)c(F)c(N)c1Cl [Compound 9]
- pest or weed control at 17.5 g/ha [1]: 80%
- pest or weed control at 35 g/ha [1]: 85%
- pest or weed control at 70 g/ha [1]: 85%
- pest or weed control at 140 g/ha [1]: 85%
- pest or weed control at 17.5 g/ha [2]: 60%
- pest or weed control at 35 g/ha [2]: 60%
- pest or weed control at 70 g/ha [2]: 75%
- pest or weed control at 140 g/ha [2]: 75%
- pest or weed control at 17.5 g/ha [3]: 70%
- pest or weed control at 35 g/ha [3]: 80%
- pest or weed control at 70 g/ha [3]: 85%
- pest or weed control at 140 g/ha [3]: 85%
- pest or weed control at 17.5 g/ha [4]: 0%
- pest or weed control at 35 g/ha [4]: 0%
- pest or weed control at 70 g/ha [4]: 0%
- pest or weed control at 140 g/ha [4]: 0%
- pest or weed control at 17.5 g/ha [5]: 0%
- pest or weed control at 35 g/ha [5]: 0%
- pest or weed control at 70 g/ha [5]: 0%
- pest or weed control at 140 g/ha [5]: 0%
- pest or weed control at 17.5 g/ha [6]: 0%
- pest or weed control at 35 g/ha [6]: 0%
- pest or weed control at 70 g/ha [6]: 20%
- pest or weed control at 140 g/ha [6]: 20%
- pest or weed control at 17.5 g/ha [7]: 0%
- pest or weed control at 35 g/ha [7]: 0%
- pest or weed control at 70 g/ha [7]: 0%
- pest or weed control at 140 g/ha [7]: 0%
- pest or weed control at 17.5 g/ha [8]: 0%
- pest or weed control at 35 g/ha [8]: 0%
- pest or weed control at 70 g/ha [8]: 0%
- pest or weed control at 140 g/ha [8]: 0%
- pest or weed control at 17.5 g/ha [9]: 0%
- pest or weed control at 35 g/ha [9]: 0%
- pest or weed control at 70 g/ha [9]: 0%
- pest or weed control at 140 g/ha [9]: 0%
- pest or weed control at 17.5 g/ha [10]: 0%
- pest or weed control at 35 g/ha [10]: 0%
- pest or weed control at 70 g/ha [10]: 0%
- pest or weed control at 140 g/ha [10]: 0%
- pest or weed control at 17.5 g/ha [11]: 0%
- pest or weed control at 35 g/ha [11]: 0%
- pest or weed control at 70 g/ha [11]: 10%
- pest or weed control at 140 g/ha [11]: 10%

SMILES: Nc1c(F)c(-c2cccc3c2OC(F)(F)O3)nc(C(=O)O)c1Cl [Compound 5]
- pest or weed control at 17.5 g/ha [1]: 10%
- pest or weed control at 35 g/ha [1]: 20%
- pest or weed control at 70 g/ha [1]: 40%
- pest or weed control at 140 g/ha [1]: 50%
- pest or weed control at 17.5 g/ha [2]: 75%
- pest or weed control at 35 g/ha [2]: 80%
- pest or weed control at 70 g/ha [2]: 85%
- pest or weed control at 140 g/ha [2]: 95%
- pest or weed control at 17.5 g/ha [3]: 60%
- pest or weed control at 35 g/ha [3]: 70%
- pest or weed control at 70 g/ha [3]: 75%
- pest or weed control at 140 g/ha [3]: 80%
- pest or weed control at 17.5 g/ha [4]: 0%
- pest or weed control at 35 g/ha [4]: 0%
- pest or weed control at 70 g/ha [4]: 0%
- pest or weed control at 140 g/ha [4]: 0%
- pest or weed control at 17.5 g/ha [5]: 0%
- pest or weed control at 35 g/ha [5]: 0%
- pest or weed control at 70 g/ha [5]: 0%
- pest or weed control at 140 g/ha [5]: 10%
- pest or weed control at 17.5 g/ha [6]: 0%
- pest or weed control at 35 g/ha [6]: 0%
- pest or weed control at 70 g/ha [6]: 10%
- pest or weed control at 140 g/ha [6]: 10%
- pest or weed control at 17.5 g/ha [7]: 0%
- pest or weed control at 35 g/ha [7]: 0%
- pest or weed control at 70 g/ha [7]: 0%
- pest or weed control at 140 g/ha [7]: 0%
- pest or weed control at 17.5 g/ha [8]: 0%
- pest or weed control at 35 g/ha [8]: 0%
- pest or weed control at 70 g/ha [8]: 0%
- pest or weed control at 140 g/ha [8]: 0%
- pest or weed control at 17.5 g/ha [9]: 0%
- pest or weed control at 35 g/ha [9]: 0%
- pest or weed control at 70 g/ha [9]: 0%
- pest or weed control at 140 g/ha [9]: 0%
- pest or weed control at 17.5 g/ha [10]: 0%
- pest or weed control at 35 g/ha [10]: 0%
- pest or weed control at 70 g/ha [10]: 0%
- pest or weed control at 140 g/ha [10]: 0%
- pest or weed control at 17.5 g/ha [11]: 0%
- pest or weed control at 35 g/ha [11]: 0%
- pest or weed control at 70 g/ha [11]: 0%
- pest or weed control at 140 g/ha [11]: 0%
